One series concerns microorganisms. Kind of series: Preservative efficacy of single preservatives, overall judgement. It counts as cell-based. As for the experimental part:
(§1) To each 20ml of emulsion, an inoculum of a microorganismal suspension (at an initial concentration of about 1-3 x 10⁸ cells per ml) was added under sterile conditions to a final concentration of about 1-3 x 10⁶ cells per ml of emulsion. Immediately upon inoculation and at 24, 48 hours, 7, 14 and 28 days thereafter, samples of 1 ml were withdrawn and eluted in a pH 7.0 sodium chloride buffer (B.P. 88 neutralizing buffer, DIFCO Laboratories, Detroit, MI, USA) to neutralize the preservatives. After about 20-30 minutes of exposure of sample to the neutralizing buffer, samples were filtered through a 0.45µm cellulose acetate filter (TE, Schueller & Schleicher). The filter and the holder were washed with 3 portions of 100 ml of sodium chloride peptone solution and then the filter was transferred to a petri dish with PCPL media which consisted of the following ingredients (per 400 ml): 20g tryptone, 1.0g yeast extract, 0.4g. dextrose, 6.0 bactoagar, 0.4g lethicin and 8.0ml Tween 80.
(§2) At 24 hours or at 2 to 5 days after the withdrawal of the sample, the number of the microorganism was counted on the petri dishes. (In order to achieve a proper count of the microorganism dilutions of the initially withdrawn sample to obtain a dilution factor of 1:10-1:50,000, were made).
(§3) Two blank emulsions without a preservative served as control for the two different neutralizing buffers.
The same experiment was also carried out with Chlorbutol alone instead of Thimerosal.

A further series deals with P. aeruginosa. As to the kind of experiment: Preservative efficacy in emulsion (Table 2). It counts as cell-based. The protocol:
as §1, §2, §3

The test system of a further series is E. coli. As to the kind of experiment: Preservative efficacy in emulsion (Table 2). It counts as cell-based. As for the experimental part:
as §1, §2, §3

Another series deals with S.aureus. Kind of series: Preservative efficacy in emulsion (Table 2). It counts as cell-based. The conditions noted are these: for Number of Organisms in 1ml Emulsion: S.aureus. As for the experimental part: as §1, §2, §3
A further series concerns A. niger. As to the kind of experiment: Preservative efficacy in emulsion (Table 2). It counts as cell-based. As for the experimental part: as §1, §2, §3
The next series relates to C. albicans. Kind of series: Preservative efficacy in emulsion (Table 2). It counts as cell-based. The protocol: as §1, §2, §3
The subject of series [1] is ocularly hypertensive rabbits. Kind of series: IOP after topical Δ⁸-THC composition, hypertensive rabbits. It counts as in vivo, albino rabbits. The conditions noted are these: composition of the invention comprising 0.4% Δ⁸-THC. As for the experimental part: (§4) The intraocular pressure (IOP) was measured by a Digilab pneumotonometer model 30R. For IOP measurement, one drop of the local anaesthetic benoxinate HCl (Fischer Pharmaceuticals, Israel) diluted 1:3 in sterile solution was instilled into each eye. In order to ensure reproducibility of IOP readings, the animals were accustomed to the experimental procedure by repeated handling.
(§5) A composition in accordance with the invention comprising 0.4% Δ⁸-THC was administered to the right eyes of albino rabbits. The administration of the composition and IOP measurements were performed as described above under (A).
(§6) Both ocularly hypertensive and normo-tensive albino rabbits were used in the study.

Series [2] deals with ocularly normo-tensive rabbits. As to the kind of experiment: IOP after topical Δ⁸-THC composition, normo-tensive rabbits. The conditions noted are these: composition of the invention comprising 0.4% Δ⁸-THC. It counts as in vivo, albino rabbits. The protocol: as §4, §5, §6
The nature of series [3]: HU-211 concentration in emulsions on storage. It counts as physicochemical. The conditions noted are these: in emulsion. As for the experimental part:
The HU-211 concentration was measured at different temperatures after various storage times and the results are shown in Fig. 11.

The test system of a further series is Albino rabbits. Kind of series: Intraocular pressure (IOP) after a single topical dose of HU-211 emulsion. It counts as in vivo. The conditions noted are these: for decrease of IOP in the contralateral eye: untreated left eye, about 4 hours after administration. The protocol:
Albino rabbits of both sexes weighing 2.25 kg were used. All rabbits chosen had no signs of ocular pathology.
as §4
Basal IOP was measured for 2 days prior to drug application by measuring the IOP 5 times over an 11 hrs. period (starting at 8am and ending at 7pm). Each time IOP was measured twice and an average of two readings was obtained.
IOP was measured at the time of drug application and at 1.5, 4, 6 and 11 hrs. thereafter.
Two groups of animals were tested, each by a different experimenter. The first group which consisted of 20 rabbits is referred to herein as " Group I" and the second group which consisted of 10 rabbits is referred to herein as "Group II". The two groups received, however, exactly the same treatment.
The treatment consisted of the application of a single dose of 50µl of a 0.1% (w/v) of HU-211 preparation in accordance with the invention into the lower cul-de-sac of the right eye of each rabbit. The eye was then kept open for a few more seconds, while excessive liquid spilling over the eyelid was wiped off. The left eye was not treated.

Setting [4] is: single preservative in emulsion.
Where [5] appears, read: Oh (immediately upon inoculation).
Where [6] appears, read: treated eye, single dose 50µl of 0.1% (w/v) HU-211.

In the case of `CC(C)(O)C(Cl)(Cl)Cl` [Chlorbutol], in the series with microorganisms (setting [4]), the “compliance with B.P. requirements” value is listed as “did not meet the B.P. requirements” and the preservative protection result is on record as “No total preservative protection was achieved”.

Regarding `N=C(NCCCCCCNC(=N)NC(=N)Nc1ccc(Cl)cc1)NC(=N)Nc1ccc(Cl)cc1` [CHL, Chlorhexidine gluconate], the “Number of Organisms in 1ml Emulsion” value is 10^7 with P. aeruginosa (24h); 10^7 in the series with P. aeruginosa (48h); 4.2 x 10^6 in the series with P. aeruginosa (setting [5]); 5 x 10^6 in the series with E. coli (48h); 5.5 x 10^6 in the series on E. coli (setting [5]); 3.5 x 10^6 in the series with S.aureus (setting [5]). Moreover, the “Number of Organisms in 1ml Emulsion” value in the series on A. niger (24h) was 38; with A. niger (48h) it was 54; in the series on C. albicans (24h), above 600; in the series with C. albicans (48h), 433; in the series with C. albicans (setting [5]), 0.9 x 10^6.

Δ⁸-THC: the “duration of the reduction of IOP” value in series [1] and in series [2] was “long-lasting” throughout. Besides, the IOP entry in series [1] (right eye) and in series [2] (right eye) was “dramatically reduces the IOP” in each case.

Take `CCCCCCC(C)(C)c1cc(O)c2c(c1)OC(C)(C)[C@H]1CC=C(CO)C[C@H]21` [HU-211]: the HU-211 concentration entry is given as “essentially no change” in series [3] (8 months at 4°C, 25°C, 30°C and 37°C); “marked decrease in concentration” in [3] (storage at 50°C). Further, the entries for the “decrease of IOP in the contralateral eye” value in the series on Albino rabbits (Group I) and with Albino rabbits (Group II) were “about 11.4%” and around 12.1%, respectively. Also, the “time until which the decrease in IOP persisted” value with Albino rabbits (treated eye, percentage of IOP change from basal level (Fig. 14)) is “about 11 hours”. In the series on Albino rabbits (setting [6]), the “time after which basal IOP levels were resumed” value is recorded as “about 11 hrs”. Also, in the series on Albino rabbits (setting [6]), the “time for which the decrease in IOP lasted” value was “about 6 hrs”. In the series with Albino rabbits (treated right eye, single dose of 50µl of 0.1% (w/v) HU-211 emulsion), the IOP entry was “dramatic decrease in IOP”.

For the compound Benzalkonium chloride [BZK], the “Number of Organisms in 1ml Emulsion” value in the series on P. aeruginosa (24h) is given as 10^7; with P. aeruginosa (48h), 10^7; in the series with P. aeruginosa (setting [5]), 4.2 x 10^6; with E. coli (24h) it was 10^7; in the series with E. coli (48h) it was 5 x 10^6; with E. coli (setting [5]), 2.6 x 10^6. The “Number of Organisms in 1ml Emulsion” value is listed as 10^7 with S.aureus (24h); 10^7 in the series with S.aureus (48h); 7.3 x 10^6 with S.aureus (setting [5]); 29 in the series with A. niger (24h); 43 with A. niger (48h); 1.5 x 10^4 with A. niger (setting [5]). Also, the “Number of Organisms in 1ml Emulsion” value in the series with C. albicans (24h) is above 600; in the series with C. albicans (48h), 433; with C. albicans (setting [5]), 1.0 x 10^6.

Turning to `C[CH2][Hg][S]c1ccccc1C(=O)O` [THI, Thimerosal], the “maintenance of total killing” value with P. aeruginosa (after 48 hours) is “contamination was noted”; in the series with S.aureus (S. aureus, after 48 hours), “contamination was noted”. Further, the preservative protection result in the series on C. albicans (at 24h) is “not able to protect totally”. The “preservative effect compared with the other tested preservatives” value with microorganisms (0.01% Thimerosal vs 0.02% benzalkonium chloride and 0.05% chlorhexadiene gluconate) is given as “much better preservative effect”.

The values are drawn from patent publication EP0521799A1, “Ophthalmic compositions” (YISSUM RESEARCH DEVELOPMENT COMPANY OF THE HEBREW …, priority 1991, dated 1993).
